# Reference: patent publication US5563130A, “Methods for inhibiting angiogenesis, proliferation of endothelial or tumor cells and tumor growth” (American Cyanamid Company, priority 1994, dated 1996)
# Columns and labels:
# HTB 16 = test: Antiproliferative activity in human tumor cell line HTB 16; assay type: cell-based; conditions: Homo sapiens; ovarian tumor line; PROTOCOL 1 and PROTOCOL 2
# Description: (§1) PROTOCOL 1, 2, and 3 are described in greater detail hereinbelow. In general, according to PROTOCOLS 1 and 2, the target ABAE and/or Human Tumor cells are exposed to the compound of Formula I for 48 hours. PROTOCOL 3 exposes ABAE cell to the compound for 4 days. A detailed description of the protocol is as follows:
# (§2) Antiproliferative Activity in Human Tumor and Adult Bovine Aortic Endothelial (ABAE) Cell Lines
# (§3) The antiproliferative activity of the compounds of Formula I of the present invention is evaluated in a panel comprised of human tumor cell lines and an adult bovine aortic endothelial cell line (ABAE). The human tumor cell lines are from:
# (§4) All cell lines are maintained in log phase in RPMI 1640 media, supplemented with 5% fetal calf serum, penicillin/streptomycin and 2 mM L-glutamine. Cultures are renewed after 20 passages with cells from a fresh stock of batch-frozen early passage cells. Cell lines are routinely checked for mycoplasma contamination (Genprobe). In a laminar flow hood, cells (1-5×10^4) are plated into 96-well microtiter plates in a volume of 0.1 ml/well with a bulk microtiter dispenser (Denley). […] At this concentration, dimethylsulfoxide has no effect on cell growth. Compounds are added using a Tomtec dispenser which simultaneously dispenses from one 96-well plate, containing the drug dilutions, to the plates containing the cells. After two days of continuous drug exposure, 50% cold trichloroacetic acid (TCA) is added to 10% final concentration to fix the cells, and after 60 minutes at 4° C., the TCA is aspirated and the plates are washed 5 times with deionized water using a microtiter plate washer. The number of cells on the plate are quantitated using a protein dye-binding assay (Monks et al., 1991). A 0.4% solution of the dye, sulforhodamine B, in glacial acetic acid is added to the plates, and the plates are washed 5 times with 1% glacial acetic acid using the automatic plate washed. The bound stain is solubilized with 0.1 ml of 10 mM Tris base. The optical densities are read from an automatic spectrophotometric plate reader (Dynatech) directly to a main frame computer (VAX 8600).
# (§5) Positive controls, that include standard chemotherapeutic drugs (i.e., adriamycin, cisplatin, etc.), are included in every experiment.
# (§6) Background optical density measurements (complete media-cells, and complete media+drug-cells) are automatically subtracted from the appropriate control and test wells. Mean values and standard errors are determined from duplicate wells. A measure is also made of the optical density at time when the drugs are added. The number of cells after treatment (P), as % of control, is calculated for every concentration of drug, as follows: [formula] wherein: T is optical density measurement for treated cells after 48 hours;
# (§7) C is optical density measurement for untreated cells after 48 hours;
# (§8) Co is optical density measurement for cells at the time of drug addition.
# (§9) IC50 of growth inhibition is calculated from the sets of P values using the RS-1 data package (BBN Software).
# (§10) The antiproliferative activity of the compounds of Formula I is evaluated in a panel comprised of human tumor cell lines and an adult bovine aortic endothelial cell line (ABAE) as listed in PROTOCOL 1. This assay is a modification of PROTOCOL 1. The modifications include:
# (§11) 1) each concentration for each compound is tested in a single well;
# (§12) 2) compounds are tested at 20, 4, 0.8, 0.16 microgram/ml and additionally in some experiments at 100 and 0.32 microgram/ml;
# (§13) 3) samples are pipetted into a 96-well plate for each of the cell lines by a Beckman Biomek 1000 SL robot;
# (§14) 4) after fixing with TCA each well is washed with 0.35 ml distilled water twice, not five times;
# (§15) 5) after staining with sulforhodamine B each well is washed 3 times, not five times; […]
# SW620 = test: Antiproliferative activity in human colon tumor cell line SW620; assay type: cell-based; conditions: Homo sapiens, SW-620, PROTOCOL 1 and PROTOCOL 2
# Description: as §1, §2, §3
# (§16) 2) Colon tumors: MIP, CaCo2, and SW620.
# as §4, §5, §6, §7, §8, §9, §10, §11, §12, §13, §14, §15
# angiogenesis = conditions: Cancer Research 51, 672-675, Brem et al; vs combination of heparin and cortisone; cited from earlier work
# A2780S = test: Antiproliferative activity in human ovarian tumor cell line A2780S; assay type: cell-based; conditions: Homo sapiens, A2780S, PROTOCOL 1 and PROTOCOL 2
# Description: as §1, §2, §3, §4, §5, §6, §7, §8, §9, §10, §11, §12, §13, §14, §15
# Human Tumor Cell lines = test: Antiproliferative activity in panel of human tumor cell lines; assay type: cell-based; conditions: average over the tested human tumor cell lines
# Description: as §1, §2, §3, §16, §4, §5, §6, §7, §8, §9, §10, §11, §12, §13, §14, §15
# A2780/DDP = test: Antiproliferative activity in human ovarian tumor cell line A2780/DDP; assay type: cell-based; conditions: Homo sapiens, A2780/DDP, read-out: A2780/DDP/DDP IC50, PROTOCOL 1 and PROTOCOL 2
# Description: as §1, §2, §3, §4, §5, §6, §7, §8, §9, §10, §11, §12, §13, §14, §15
structure (smiles),measurement,setting,value
"CN(C)c1ccc(O)c2c1C[C@H]1C[C@H]3[C@H](N(C)C)C(O)=C(C(N)=O)C(=O)[C@@]3(O)C(O)=C1C2=O [Minocycline, reference compound]",IC50,HTB 16,5.8 µg/mL
same,IC50,SW620,6.5 µg/mL
same,extent of angiogenesis inhibition,angiogenesis,comparable to that of the combination therapy of heparin and cortisone
same,IC50,A2780S,6.1 µg/mL
same,IC50,Human Tumor Cell lines,6.6 µg/mL
same,IC50,A2780/DDP,6.1 µg/mL
